Here are results for four molecules from paper PMC5549559 (Cellular signalling, 2015).

The test system of assay [1] is rats. Conditions: ref [11], cited from earlier work; for cocaine self-administration (drug intake): intra-VTA infusion, rats.
For assay [2], the system named is kappa opioid receptor (KOR). Kind of assay: GloSensor cAMP assay. The class given is cell-based. For orientation: Changes in cAMP serve as a functional read-out for many G protein-coupled receptors.
Assay [3] concerns kappa opioid receptor (KOR). The assay is described as follows: PathHunter β-arrestin recruitment assay in Drx-KOR cells. Type of assay: cell-based. Conditions: dynorphin, various concentrations, 90 min at 37°C; Drx-KOR cells (Figure 5A). On the technique in general: Activated receptors often draw arrestin, which recruitment assays turn into a signal.
Assay [4] concerns p38. Kind of assay: p38 activation. Conditions: western blot, ± SD, mean of 3 separate experiments (Figure 5D). The class given is cell-based, Chinese hamster. Background: Immunoblotting shows a protein as a band on a membrane.

With `Cc1nc2ccc(NC(=O)Nc3ccnc4cccnc34)cc2o1` [SB-334867], the “cocaine self-administration (drug intake)” value in assay [1] is reported as “reduces cocaine self-administration in rats”.
On to `O=S(=O)(NCCNC/C=C/c1ccc(Br)cc1)c1cccc2cnccc12` [H89], for which the “effect of PKA inhibitor on OX1R attenuation of KOR Gαi signaling” value in assay [2] (PKI or H89, 2 h, CHO-KOR + HA-OX1R, 500 nM orexin, 1 μM dynorphin (Figure 2B)) is on record as “did not affect OX1R attenuation of KOR Gαi signaling”.
On to `Oc1ccc2c3c1O[C@H]1c4[nH]c5c(c4C[C@@]4(O)[C@@H](C2)N(CC2CC2)CC[C@]314)C[C@@]1(O)[C@H]2Cc3ccc(O)c4c3[C@@]1(CCN2CC1CC1)[C@H]5O4` [norBNI], for which the “cocaine self-administration (drug intake)” value in assay [1] is recorded as “has no effect on drug intake”. The “effect on ability of SB-334867 to reduce drug intake” value in assay [1] (norBNI with SB-334867, rats) is on record as “blocks the ability of SB-334867 to reduce drug intake”.
Consider “Dynorphin A (1-17) (YGGFLRRIRPKLKWDNQ; Dynorphin A(1-17); UniProt P01213 207-223, looked up)”, for which the “β-arrestin recruitment to KOR (luminescence)” value in assay [3] is on record as “concentration-dependent increase in luminescence”. In addition, the “increase in phospho-p38/total p38” value in assay [4] (1 μM dynorphin, 15 min, CHO-KOR cells, relative to untreated) came out at 1.76 ± 0.12 fold; in assay [4] (CHO-KOR + HA-OX1R, 500 nM orexin 10 min prior to dynorphin, relative to untreated cells), 2.82 ± 0.36 fold. The “KOR response to dynorphin (cAMP) on transfection and activation of 5HT2aR” value in assay [2] (1 μM dynorphin, CHO-KOR + 5HT2aR, activated (Figure 1A)) was “does not affect the KOR response to dynorphin”.
